# Measured values: PubChem BioAssay AID2060903 (Molecular Pharmacology Branch, DTP, NCI, 2025)
# pIC50: −log10 of the molar value.
# System: 377384-186-R-J1-PDC complex spheroid viability
# Assay: Anticancer human tumor 377384-186-R-J1-PDC patient-derived pancreatic carcinoma cell line growth inhibition [RAS]
# Conditions: for pIC50: curve of first compound; for viability, T/C: stronger effect = lower value
# How it was run: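 Tumour cells grown as complex spheroids with HUVEC endothelial cells and mesenchymal stem cells, treated with RAS pathway inhibitor combinations. Each agent spans half-log steps from near clinical Cmax, or 10 microM where Cmax is unknown.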
# [1] = second compound 0.000949 µM, first compound 0.0316 µM
# [2] = second compound 0.000949 µM, first compound 0.1 µM
# [3] = second compound 0.000949 µM, first compound 0.316 µM
# [4] = second compound 0.000949 µM, first compound 1 µM
# [5] = second compound 0.000949 µM, first compound 3.16 µM
# [6] = second compound 0.000949 µM, first compound 10 µM
# [7] = second compound 0.003 µM, first compound 0.0316 µM
# [8] = second compound 0.003 µM, first compound 0.1 µM
# [9] = second compound 0.003 µM, first compound 0.316 µM
# [10] = second compound 0.003 µM, first compound 1 µM
# [11] = second compound 0.003 µM, first compound 3.16 µM
# [12] = second compound 0.003 µM, first compound 10 µM
# [13] = second compound 0.00949 µM, first compound 0.0316 µM
# [14] = second compound 0.00949 µM, first compound 0.1 µM
# [15] = second compound 0.00949 µM, first compound 0.316 µM
# [16] = second compound 0.00949 µM, first compound 1 µM
# [17] = second compound 0.00949 µM, first compound 3.16 µM
# [18] = second compound 0.00949 µM, first compound 10 µM
# [19] = second compound 0.03 µM, first compound 0.0316 µM
# [20] = second compound 0.03 µM, first compound 0.1 µM
# [21] = second compound 0.03 µM, first compound 0.316 µM
# [22] = second compound 0.03 µM, first compound 1 µM
# [23] = second compound 0.03 µM, first compound 3.16 µM
# [24] = second compound 0.03 µM, first compound 10 µM
# [25] = second compound 0.0949 µM, first compound 0.0316 µM
# [26] = second compound 0.0949 µM, first compound 0.1 µM
# [27] = second compound 0.0949 µM, first compound 0.316 µM
# [28] = second compound 0.0949 µM, first compound 1 µM
# [29] = second compound 0.0949 µM, first compound 3.16 µM
# [30] = second compound 0.0949 µM, first compound 10 µM
# [31] = second compound 0.3 µM, first compound 0.0316 µM
# [32] = second compound 0.3 µM, first compound 0.1 µM
# [33] = second compound 0.3 µM, first compound 0.316 µM
# [34] = second compound 0.3 µM, first compound 1 µM
# [35] = second compound 0.3 µM, first compound 3.16 µM
# [36] = second compound 0.3 µM, first compound 10 µM
# 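Also: spheroids exposed to compounds for seven days before readout.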
structure (smiles),measurement,setting,value
CC(C)NCC(C(=O)N1CCN(c2ncnc3c2C(C)CC3O)CC1)c1ccc(Cl)cc1 (stereo not drawn) + CCn1c(-c2cccnc2C(C)OC)c2c3cc(ccc31)N1CCOC(CC(NC(=O)C(C(C)C)N(C)C(=O)C3(F)CCN(C(=O)C#CC(C)(C)N(C)C)CC3)C(=O)N3CCCC(N3)C(=O)OCC(C)(C)C2)C1,pIC50,second compound 0.000949 µM,5.42
same,pIC50,second compound 0.003 µM,5.56
same,pIC50,second compound 0.00949 µM,5.56
same,pIC50,second compound 0.03 µM,5.60
same,pIC50,second compound 0.0949 µM,5.68
same,pIC50,second compound 0.3 µM,5.67
same,"viability, T/C",[1],95.4%
same,"viability, T/C",[2],93.3%
same,"viability, T/C",[3],88.2%
same,"viability, T/C",[4],66.9%
same,"viability, T/C",[5],56%
same,"viability, T/C",[6],32.1%
same,"viability, T/C",[7],104%
same,"viability, T/C",[8],106%
same,"viability, T/C",[9],85.1%
same,"viability, T/C",[10],72.2%
same,"viability, T/C",[11],46.9%
same,"viability, T/C",[12],29.4%
same,"viability, T/C",[13],102%
same,"viability, T/C",[14],95.1%
same,"viability, T/C",[15],80.8%
same,"viability, T/C",[16],65.3%
same,"viability, T/C",[17],48.4%
same,"viability, T/C",[18],31%
same,"viability, T/C",[19],100%
same,"viability, T/C",[20],85.1%
same,"viability, T/C",[21],91.4%
same,"viability, T/C",[22],66.8%
same,"viability, T/C",[23],46.2%
same,"viability, T/C",[24],29.3%
same,"viability, T/C",[25],91.2%
same,"viability, T/C",[26],86.9%
same,"viability, T/C",[27],79.2%
same,"viability, T/C",[28],59.6%
same,"viability, T/C",[29],44.8%
same,"viability, T/C",[30],29.3%
same,"viability, T/C",[31],69.4%
same,"viability, T/C",[32],78.7%
same,"viability, T/C",[33],67.2%
same,"viability, T/C",[34],59.8%
same,"viability, T/C",[35],45.3%
same,"viability, T/C",[36],27.5%
CC(C)n1nc(-c2ccc3oc(N)nc3c2)c2c(N)ncnc21 + CCn1c(-c2cccnc2C(C)OC)c2c3cc(ccc31)N1CCOC(CC(NC(=O)C(C(C)C)N(C)C(=O)C3(F)CCN(C(=O)C#CC(C)(C)N(C)C)CC3)C(=O)N3CCCC(N3)C(=O)OCC(C)(C)C2)C1,pIC50,second compound 0.000949 µM,< 7.00
same,pIC50,second compound 0.003 µM,< 7.00
same,pIC50,second compound 0.00949 µM,< 7.00
same,pIC50,second compound 0.03 µM,< 7.00
same,pIC50,second compound 0.0949 µM,< 7.00
same,pIC50,second compound 0.3 µM,8.11
same,"viability, T/C","second compound 0.000949 µM, first compound 0.000316 µM",96.9%
same,"viability, T/C","second compound 0.000949 µM, first compound 0.001 µM",92%
same,"viability, T/C","second compound 0.000949 µM, first compound 0.00316 µM",80.3%
same,"viability, T/C","second compound 0.000949 µM, first compound 0.01 µM",62.1%
same,"viability, T/C",[1],31.9%
same,"viability, T/C",[2],99%
same,"viability, T/C","second compound 0.003 µM, first compound 0.000316 µM",93.8%
same,"viability, T/C","second compound 0.003 µM, first compound 0.001 µM",84.8%
same,"viability, T/C","second compound 0.003 µM, first compound 0.00316 µM",86.8%
same,"viability, T/C","second compound 0.003 µM, first compound 0.01 µM",59.4%
same,"viability, T/C",[7],37.1%
same,"viability, T/C",[8],98.4%
same,"viability, T/C","second compound 0.00949 µM, first compound 0.000316 µM",96.2%
same,"viability, T/C","second compound 0.00949 µM, first compound 0.001 µM",91.7%
same,"viability, T/C","second compound 0.00949 µM, first compound 0.00316 µM",66.6%
same,"viability, T/C","second compound 0.00949 µM, first compound 0.01 µM",55.8%
same,"viability, T/C",[13],34.1%
same,"viability, T/C",[14],89.8%
same,"viability, T/C","second compound 0.03 µM, first compound 0.000316 µM",86.6%
same,"viability, T/C","second compound 0.03 µM, first compound 0.001 µM",78.1%
same,"viability, T/C","second compound 0.03 µM, first compound 0.00316 µM",72.3%
same,"viability, T/C","second compound 0.03 µM, first compound 0.01 µM",53.8%
same,"viability, T/C",[19],33.7%
same,"viability, T/C",[20],101%
same,"viability, T/C","second compound 0.0949 µM, first compound 0.000316 µM",77%
same,"viability, T/C","second compound 0.0949 µM, first compound 0.001 µM",82.2%
same,"viability, T/C","second compound 0.0949 µM, first compound 0.00316 µM",71.4%
same,"viability, T/C","second compound 0.0949 µM, first compound 0.01 µM",55%
same,"viability, T/C",[25],37.9%
same,"viability, T/C",[26],69.3%
same,"viability, T/C","second compound 0.3 µM, first compound 0.000316 µM",68.8%
same,"viability, T/C","second compound 0.3 µM, first compound 0.001 µM",74.7%
same,"viability, T/C","second compound 0.3 µM, first compound 0.00316 µM",66.8%
same,"viability, T/C","second compound 0.3 µM, first compound 0.01 µM",45.7%
same,"viability, T/C",[31],27.2%
same,"viability, T/C",[32],56.1%
CC(Nc1ccc2c(c1)OCCn1cc(N3C(=O)OCC3C(F)F)nc1-2)C(N)=O (stereo not drawn) + CCn1c(-c2cccnc2C(C)OC)c2c3cc(ccc31)N1CCOC(CC(NC(=O)C(C(C)C)N(C)C(=O)C3(F)CCN(C(=O)C#CC(C)(C)N(C)C)CC3)C(=O)N3CCCC(N3)C(=O)OCC(C)(C)C2)C1,pIC50,second compound 0.000949 µM,6.19
same,pIC50,second compound 0.003 µM,6.15
same,pIC50,second compound 0.00949 µM,6.34
same,pIC50,second compound 0.03 µM,6.29
same,pIC50,second compound 0.0949 µM,6.55
same,pIC50,second compound 0.3 µM,6.88
same,"viability, T/C",[1],86.7%
same,"viability, T/C",[2],68.8%
same,"viability, T/C",[3],56.5%
same,"viability, T/C",[4],48%
same,"viability, T/C",[5],34%
same,"viability, T/C",[6],26.5%
same,"viability, T/C",[7],94.1%
same,"viability, T/C",[8],74.7%
same,"viability, T/C",[9],57.7%
same,"viability, T/C",[10],47.2%
same,"viability, T/C",[11],35.6%
same,"viability, T/C",[12],23.1%
same,"viability, T/C",[13],92.5%
same,"viability, T/C",[14],70%
same,"viability, T/C",[15],53.3%
same,"viability, T/C",[16],39.6%
same,"viability, T/C",[17],39.2%
same,"viability, T/C",[18],26.7%
same,"viability, T/C",[19],87.2%
same,"viability, T/C",[20],72.3%
same,"viability, T/C",[21],55.3%
same,"viability, T/C",[22],40.8%
same,"viability, T/C",[23],36.6%
same,"viability, T/C",[24],28.1%
same,"viability, T/C",[25],72.9%
same,"viability, T/C",[26],57.2%
same,"viability, T/C",[27],49.2%
same,"viability, T/C",[28],38.4%
same,"viability, T/C",[29],37.5%
same,"viability, T/C",[30],24.9%
same,"viability, T/C",[31],70.3%
same,"viability, T/C",[32],54.4%
same,"viability, T/C",[33],35.8%
same,"viability, T/C",[34],38%
same,"viability, T/C",[35],30.1%
same,"viability, T/C",[36],25%
C[C@@H](NC(=O)c1ncnc(N)c1Cl)c1ncc(C(=O)Nc2cc(C(F)(F)F)c(Cl)cn2)s1 + CCn1c(-c2cccnc2C(C)OC)c2c3cc(ccc31)N1CCOC(CC(NC(=O)C(C(C)C)N(C)C(=O)C3(F)CCN(C(=O)C#CC(C)(C)N(C)C)CC3)C(=O)N3CCCC(N3)C(=O)OCC(C)(C)C2)C1,pIC50,second compound 0.000949 µM,< 5.00
same,pIC50,second compound 0.003 µM,< 5.00
same,pIC50,second compound 0.00949 µM,< 5.00
same,pIC50,second compound 0.03 µM,< 5.00
same,pIC50,second compound 0.0949 µM,< 5.00
same,pIC50,second compound 0.3 µM,< 5.00
same,"viability, T/C",[1],106%
same,"viability, T/C",[2],109%
same,"viability, T/C",[3],113%
same,"viability, T/C",[4],133%
same,"viability, T/C",[5],128%
same,"viability, T/C",[6],111%
same,"viability, T/C",[7],102%
same,"viability, T/C",[8],104%
same,"viability, T/C",[9],120%
same,"viability, T/C",[10],134%
same,"viability, T/C",[11],127%
same,"viability, T/C",[12],108%
same,"viability, T/C",[13],98%
same,"viability, T/C",[14],114%
same,"viability, T/C",[15],106%
same,"viability, T/C",[16],129%
same,"viability, T/C",[17],150%
same,"viability, T/C",[18],108%
same,"viability, T/C",[19],110%
same,"viability, T/C",[20],106%
same,"viability, T/C",[21],129%
same,"viability, T/C",[22],115%
same,"viability, T/C",[23],142%
same,"viability, T/C",[24],103%
same,"viability, T/C",[25],96.8%
same,"viability, T/C",[26],98.5%
same,"viability, T/C",[27],113%
same,"viability, T/C",[28],118%
same,"viability, T/C",[29],130%
same,"viability, T/C",[30],99.6%
same,"viability, T/C",[31],88.1%
same,"viability, T/C",[32],89.3%
same,"viability, T/C",[33],85.5%
same,"viability, T/C",[34],95.9%
same,"viability, T/C",[35],108%
same,"viability, T/C",[36],82.4%
